In one assay the test system is barley seedlings. The experiment in a line: plant assay: pigment neogenesis in etiolated barley seedlings. In kind it is in vivo. The note with it: barley seedlings subjected to fosmidomycin treatment, FIG. 8. An excerpt: Since this biosynthetic pathway is a metabolic pathway which is exclusively located in the chloroplasts, it offers optimal target enzymes for the development of inhibitors. Since, according to current knowledge, no enzyme which is identical with, or similar to, Arabidopsis thaliana DXPRI is present in other higher organisms, it can be assumed that inhibitors should have a very specific action on plants. The site of action of an inhibitor, namely fosmidomycin (3-(N-formyl-N-hydroxyamino)propylphosphonic acid; Fujisawa Pharmaceutical Co.) was identified as being a DXPRI. […] The following abbreviations were used in FIG. 7: DOX=1-deoxy-D-xylulose, ME=methylerythritol. The same action is found in a plant assay in which barley seedlings are subjected to fosmidomycin treatment and then examined for their chlorophyll and carotenoid content.
FIG. 8. Effect of fosmidomycin on pigment neogenesis in etiolated barley seedlings.

Assay [1] concerns Arabidopsis thaliana DXPRI. The experiment in a line: DXPRI enzyme test (heterologously expressed in E. coli, TLC/autoradiography of 14C product). In kind it is biochemical. The procedure: The transgenic strain was incubated in the growth medium “2×YT” (per 1 l: Bacto-tryptone 16 g, yeast extract 10 g, NaCl 5 g). The cells were grown at 37° C. to an OD560 nm of 0.6. After IPTG (1 MM) had been added, they were cultured for a further 10 minutes at 37° C. and then for a further 4 hours at 22° until they were harvested. The cells were centrifuged off and washed in 1% NaCl. After the cells had been disrupted (50 to 500 ml of cell culture (OD560 nm of 1.0) by means of a French press, a crude protein extract was used for enzyme tests (in 4 ml of extraction buffer (Tris/HCl (pH 7.5) 100 mM, MgCl2 5 mM, DTT 2 mM, PMSF 0.1 mM). For storage, the crude extracts together with 20% of glycerol were frozen at −20° C.
For the enzyme test, 15 μl (diluted to 1 to 7 mg of protein/ml) of protein extract were incubated for 30 minutes at 30° C. with MnCl2 (1 mM), NaF (5 mM), NADPH2 (0.5 mM) and ^14C-1-deoxy-D-xylulose-5-phosphate (0.25 mM, 3 kBq). The reaction was stopped at 100° C. (30 seconds) by adding CaCl2 (to 100 mM) and alkaline phosphatase (0.5 units). The product was dephosphorylated for 2 hours at 30° C. Detection was carried out by subjecting the product to separation by thin-layer chromatography on silica gel 60 (Merck) with acetone/ethyl acetate/water (50+50+2) with subsequent evaluation by Instant Imager. […]

For a further assay, the system named is mevalonate formation. The note with it: cited from earlier work.

Take `O=CN(O)CCCP(=O)(O)O` [fosmidomycin, 3-(N-formyl-N-hydroxyamino)propylphosphonic acid]: in the assay on barley seedlings, the carotenoid content entry is recorded as “greatly reduced” and the chlorophyll content result was “greatly reduced”. Further, in assay [1] (biochemical assay, FIG. 7), the “inhibition of the enzymatic activity of DXPRI” value is listed as “efficient inhibition”. Besides, the “formation of ME (methylerythritol)” value in assay [1] (fosmidomycin at various concentrations, crude protein extract, 14C-1-deoxy-D-xylulose-5-phosphate substrate) was “inhibited efficiently”.
As for mevinolin, in the assay with mevalonate formation (cytoplasma), the “sterol biosynthesis in the cytoplasma” value is recorded as “inhibition”. The “prenyl lipid formation in the plastids” value with mevalonate formation (plastids) is recorded as “remains unaffected”.

The record behind these values is patent publication US6765129B1, “Overexpression of a DNA sequence coding for a 1-desoxy-d-xylulose-5-phosphate reductoisomerase in plants” (BASF Aktiengesellschaft, priority 1999, dated 2004).
